Assay results from PubChem BioAssay (NCI).
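Method: 48-hour compound exposure of cells in 96-well plates, five concentrations, linear interpolation of endpoints. GI50 marks 50% less growth. TGI is the concentration that stops growth completely.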

How the values were obtained:
Test in all cases: DTP human tumour cell line panel, 48 h
[1] = tested on: UO-31 renal
[2] = tested on: UACC-62 melanoma
[3] = tested on: MALME-3M melanoma
[4] = tested on: XF 498 CNS
[5] = tested on: NCI/ADR-RES ovarian
[6] = tested on: HOP-62 NSCLC
[7] = tested on: RPMI-8226 leukemia
[8] = tested on: K-562 leukemia
[9] = tested on: SNB-19 CNS
[10] = tested on: HCT-15 colon
[11] = tested on: RXF-631 renal
[12] = tested on: SR leukemia
[13] = tested on: OVCAR-4 ovarian
[14] = tested on: SW-620 colon
[15] = tested on: HCT-116 colon
[16] = tested on: EKVX NSCLC
[17] = tested on: SNB-75 CNS
[18] = tested on: LXFL 529 NSCLC
[19] = tested on: MDA-MB-231 breast
[20] = tested on: SF-295 CNS
[21] = tested on: T-47D breast
[22] = tested on: IGROV1 ovarian
[23] = tested on: SF-268 CNS
[24] = tested on: COLO 205 colon
[25] = tested on: 786-0 renal
[26] = tested on: CAKI-1 renal
[27] = tested on: SN12C renal
[28] = tested on: HCC-2998 colon
[29] = tested on: SK-MEL-2 melanoma
[30] = tested on: KM20L2 colon
[31] = tested on: MCF7 breast
[32] = tested on: DMS 273 small cell lung
[33] = tested on: DU-145 prostate
[34] = tested on: DMS 114 small cell lung
[35] = tested on: SK-MEL-28 melanoma
[36] = tested on: ACHN renal
[37] = tested on: NCI-H460 lung
[38] = tested on: RXF 393 renal
[39] = tested on: HL-60(TB) leukemia
[40] = tested on: HS 578T breast
[41] = tested on: LOX IMVI melanoma
[42] = tested on: SK-OV-3 ovarian
[43] = tested on: MOLT-4 leukemia
[44] = tested on: NCI-H226 lung
[45] = tested on: TK-10 renal
[46] = tested on: SF-539 CNS
[47] = tested on: HOP-92 NSCLC
[48] = tested on: CCRF-CEM leukemia
[49] = tested on: DLD-1 colon
[50] = tested on: M19-MEL melanoma
[51] = tested on: KM12 colon
[52] = tested on: MDA-MB-435
[53] = tested on: SNB-78 CNS
[54] = tested on: A549 NSCLC
[55] = tested on: U251 CNS
[56] = tested on: PC-3 prostate
[57] = tested on: HT29 colon
[58] = tested on: NCI-H23 lung
[59] = tested on: M14 melanoma
[60] = tested on: UACC-257 melanoma
[61] = tested on: SK-MEL-5 melanoma
[62] = tested on: OVCAR-3 ovarian
[63] = tested on: OVCAR-8 ovarian
[64] = tested on: A498 renal
[65] = tested on: OVCAR-5 ovarian
[66] = tested on: NCI-H522 lung
[67] = tested on: HOP-18 NSCLC

## CC(CN1CCN(CC(C)Nc2ccnc3cc(Cl)ccc23)CC1)Nc1ccnc2cc(Cl)ccc12 (configuration not stated)
[1]
  TGI: 30.7 µM
[2]
  TGI: 32.5 µM
[3]
  TGI: 26.5 µM
[4]
  TGI: 37.9 µM
[5]
  GI50: 83.6 µM
  TGI: > 100 µM
[6]
  TGI: > 63 µM
[7]
  TGI: > 20.1 µM
[8]
  TGI: > 100 µM
[9]
  TGI: > 79.9 µM
[10]
  TGI: 19.6 µM
[11]
  TGI: 25.3 µM
[12]
  TGI: 7.45 µM
[13]
  TGI: > 61.6 µM
[14]
  GI50: 2.82 µM
  TGI: > 100 µM
[15]
  TGI: 12.9 µM
[16]
  TGI: > 58.9 µM
[17]
  TGI: 18.3 µM
[18]
  TGI: 30.7 µM
[19]
  GI50: 2.72 µM
  TGI: 7.52 µM
[20]
  TGI: 51.2 µM
[21]
  GI50: 35.2 µM
  TGI: 74.6 µM
[22]
  GI50: 9.37 µM
  TGI: > 100 µM
[23]
  TGI: > 36 µM
[24]
  TGI: 31.8 µM
[25]
  TGI: 33.8 µM
[26]
  TGI: > 100 µM
[27]
  TGI: > 71.6 µM
[28]
  TGI: 50.2 µM
[29]
  GI50: 25.8 µM
  TGI: 62.7 µM
[30]
  TGI: 26.9 µM
[31]
  GI50: 8.29 µM
  TGI: > 100 µM
[32]
  TGI: 29.8 µM
[33]
  GI50: 7.83 µM
  TGI: > 100 µM
[34]
  TGI: 41 µM
[35]
  TGI: 10.4 µM
[36]
  TGI: 64.6 µM
[37]
  TGI: 14.3 µM
[38]
  TGI: 14.7 µM
[39]
  TGI: 19.3 µM
[40]
  GI50: 2.55 µM
  TGI: 9.69 µM
[41]
  TGI: 8.19 µM
[42]
  TGI: 76.7 µM
[43]
  TGI: > 100 µM
[44]
  TGI: > 69.5 µM
[45]
  TGI: 49.2 µM
[46]
  TGI: 10.4 µM
[47]
  GI50: 1.59 µM
  TGI: 13.2 µM
[48]
  TGI: > 100 µM
[49]
  TGI: 41.1 µM
[50]
  TGI: 41.4 µM
[51]
  TGI: > 51.8 µM
[52]
  GI50: 2.74 µM
  TGI: 9.38 µM
[53]
  TGI: 38 µM
[54]
  TGI: > 57 µM
[55]
  TGI: 42.2 µM
[56]
  GI50: 3.04 µM
  TGI: 57.2 µM
[57]
  TGI: > 53.8 µM
[58]
  TGI: > 57 µM
[59]
  TGI: 10.5 µM
[60]
  TGI: 29.5 µM
[61]
  TGI: 23.5 µM
[62]
  TGI: > 64.4 µM
[63]
  TGI: > 64 µM
[64]
  TGI: > 56.8 µM
[65]
  TGI: > 68.6 µM
[66]
  TGI: 21.3 µM

## CCOC(=O)c1[nH]c(CN(C)Cc2[nH]c(C(=O)OCC)c(C)c2C(=O)OCc2ccccc2)c(C(=O)OCc2ccccc2)c1C
[1]
  TGI: > 100 µM
[2]
  TGI: 85.3 µM
[3]
  TGI: > 100 µM
[6]
  TGI: 89.7 µM
[8]
  TGI: > 100 µM
[9]
  TGI: 42.2 µM
[10]
  TGI: > 100 µM
[11]
  TGI: 43.4 µM
[12]
  TGI: > 100 µM
[13]
  TGI: 32.1 µM
[14]
  TGI: > 100 µM
[15]
  TGI: 38 µM
[16]
  TGI: 42.5 µM
[17]
  TGI: 19.3 µM
[18]
  TGI: > 100 µM
[20]
  TGI: > 100 µM
[22]
  TGI: > 100 µM
[23]
  TGI: > 100 µM
[24]
  TGI: > 100 µM
[25]
  TGI: 36.2 µM
[26]
  TGI: 23.8 µM
[27]
  TGI: 34.5 µM
[28]
  TGI: > 100 µM
[30]
  TGI: 14.1 µM
[32]
  TGI: 35 µM
[67]
  TGI: > 100 µM
[34]
  TGI: > 100 µM
[35]
  TGI: > 100 µM
[36]
  TGI: > 100 µM
[37]
  TGI: 62.2 µM
[38]
  TGI: 22.3 µM
[39]
  TGI: > 100 µM
[41]
  TGI: > 100 µM
[43]
  TGI: > 100 µM
[44]
  TGI: 32.7 µM
[45]
  TGI: 43.8 µM
[46]
  TGI: 21.3 µM
[47]
  TGI: 8.73 µM
[48]
  TGI: > 100 µM
[49]
  TGI: > 100 µM
[51]
  TGI: 54.9 µM
[53]
  TGI: > 100 µM
[54]
  TGI: 98.2 µM
[55]
  TGI: 34 µM
[57]
  TGI: 8.01 µM
[58]
  TGI: 42 µM
[59]
  TGI: 29.1 µM
[60]
  TGI: > 100 µM
[61]
  TGI: 22.2 µM
[62]
  TGI: 28.3 µM
[63]
  TGI: > 100 µM
[64]
  TGI: 34.9 µM
[65]
  TGI: 44.8 µM
[66]
  TGI: 36.7 µM
